Here are results for 13 compounds from patent US20060247263A1, “Substituted heterocyclic compounds and methods of use” (Amgen Inc., priority 2005, published 2006).

For the experiment, the system named is LPS induced TNF release. Nature of the experiment: Lipopolysaccharide-Activated THP1 Cell TNF Production Assay. The conditions noted are these: Homo sapiens, THP-1, THP1 cells, 3 h at 37° C., secreted TNF-α. The experiment is classed as cell-based. The method, then: Lipopolysaccharide-Activated THP1 Cell TNF Production Assay
THP1 cells are resuspended in fresh THP1 media (RPMI 1640, 10% heat-inactivated FBS, 1XPGS, 1XNEAA, plus 30 μM βME) at a concentration of 1E6/mL. One hundred microliters of cells per well are plated in a polystyrene 96-well tissue culture. One microgram per mL of bacterial LPS is prepared in THP1 media and is transferred to the wells. Test compounds are dissolved in 100% DMSO and are serially diluted 3 fold in a polypropylene 96-well microtiter plate (drug plate). HI control and LO control wells contain only DMSO. One microliter of test compound from the drug plate followed by 10 μL of LPS are transferred to the cell plate. The treated cells are induced to synthesize and secrete TNF-α at 37° C. for 3 h. Forty microliters of conditioned media are transferred to a 96-well polypropylene plate containing 110 μL of ECL buffer (50 mM Tris-HCl pH 8.0, 100 mM NaCl, 0.05% Tween 20, 0.05% NaN3 and 1% FBS) supplemented with 0.44 nM MAB610 monoclonal Ab (R&D Systems), 0.34 nM ruthenylated AF210NA polyclonal Ab (R&D Systems) and 44 μg/mL sheep anti-mouse M280 Dynabeads (Dynal). After a 2 h incubation at RT with shaking, the reaction is read on the ECL M8 Instrument (IGEN Inc.). A low voltage is applied to the ruthenylated TNF-α immune complexes, which in the presence of TPA (the active component in Origlo), results in a cyclical redox reaction generating light at […]. The amount of secreted TNF-α in the presence of compound compared with that in the presence of DMSO vehicle alone (HI control) is calculated using the formula:% control (POC)=(cpd−average LO)/(average HI−average LO)*100. Data (consisting of POC and inhibitor concentration in μM) is fitted to a 4-parameter equation (y=A+((B−A)/(1+((x/C)ˆD))), where A is the minimum y (POC) value, B is the maximum y (POC), C is the x (cpd concentration) at the point of inflection and D is the slope factor) using a Levenburg-Marquardt non-linear regression algorithm.

One may read the IC50 as the concentration that inhibits the measured activity by half. Higher therefore signals weaker potency in that assay. Compound `CN(c1cc(-c2ccccc2)c2ncn(C)c2c1)c1ccnc(NC2CCNCC2)n1` displayed an IC50 of at most 20 µM. As for `CC(Cc1cccc(CO)c1)Nc1nccc(N(C)c2cc(-c3ccccc3)c3ncn(C)c3c2)n1` (stereo not shown) [(3-(2-(4-(Methyl(3-methyl-7-phenyl-3H-benzo[d]imidazol-5-yl)amino)pyrimidin-2-ylamino)propyl)phenyl)methanol], the IC50 was at most 20 µM. With `CC(Cc1cccc(CN)c1)Nc1nccc(N(C)c2cc(-c3ccccc3)c3ncn(C)c3c2)n1` (stereo not shown) [N2-(1-(3-(Aminomethyl)phenyl)propan-2-yl)-N-4-methyl-N-4-(3-methyl-7-phenyl-3H-benzo[d]imidazol-5-yl)pyrimidine-2,4-diamine] the figure was at most 20 µM. As to `CC(Cc1cccc(CN=[N+]=[N-])c1)Nc1nccc(N(C)c2cc(-c3ccccc3)c3ncn(C)c3c2)n1` (stereo not shown) [N2-(1-(3-(Azidomethyl)phenyl)propan-2-yl)-N-4-methyl-N-4-(3-methyl-7-phenyl-3H-benzo[d]imidazol-5-yl)pyrimidine-2,4-diamine], the IC50 was at most 20 µM.

As to `CC(Cc1cccc(CN)c1)Nc1nccc(N(C)c2cc(-c3ccccc3)c3c(c2)ncn3C)n1` (stereo not shown) [N2-(1-(3-(aminomethyl)phenyl)propan-2-yl)-N-4-methyl-N-4-(1-methyl-7-phenyl-1H-benzo[d]imidazol-5-yl)pyrimidine-2,4-diamine], the IC50 is at most 20 µM.

In turn, `CN(c1cc(-c2ccccc2)c2ncn(C)c2c1)c1ccnc(NCCc2ccccc2Cl)n1` [N2-(2-chlorophenethyl)-N-4-methyl-N-4-(3-methyl-7-phenyl-3H-benzo[d]imidazol-5-yl)pyrimidine-2,4-diamine] registered an IC50 of at most 20 µM. `CN(c1cc(-c2ccccc2)c2ncn(C)c2c1)c1ccnc(NC2CCC(N)CC2)n1` (stereo not shown) [N2-((1 s,4s)-4-aminocyclohexyl)-N-4-methyl-N-4-(3-methyl-7-phenyl-3H-benzo[d]imidazol-5-yl)pyrimidine-2,4-diamine] yielded an IC50 of at most 20 µM. As to `C[C@H](N)c1cccc(C[C@H](C)Nc2nccc(N(C)c3cc(-c4ccccc4)c4ncn(C)c4c3)n2)c1` [N2-((S)-1-(3-((S)-1-Aminoethyl)phenyl)propan-2-yl)-N-4-methyl-N-4-(3-methyl-7-phenyl-3H-benzo[d]imidazol-5-yl)pyrimidine-2,4-diamine], the half-maximal inhibitory concentration (IC50) is at most 20 µM.

In the case of `CC(C)CNc1nccc(N(C)c2cc(-c3ccccc3)c3ncn(C)c3c2)n1` [N2-isobutyl-N-4-methyl-N-4-(3-methyl-7-phenyl-3H-benzo[d]imidazol-5-yl)-pyrimidine-2,4-diamine], the IC50 was at most 20 µM. In the case of `CN(c1cc(-c2ccccc2)c2nc[nH]c2c1)c1ccnc(NCCc2cccnc2)n1` [N4-Methyl-N-4-(7-phenyl-3H-benzo[d]imidazol-5-yl)-N-2-(2-(pyridin-3-yl)ethyl)-pyrimidine-2,4-diamine] it was at most 20 µM. `CN(c1cc(-c2ccccc2)c2ncn(C)c2c1)c1ccnc(NCCc2cccnc2)n1` [N4-methyl-N-4-(3-methyl-7-phenyl-3H-benzo[d]imidazol-5-yl)-N-2-(2-(pyridin-3-yl)ethyl)pyrimidine-2,4-diamine] came in with a 50% inhibitory concentration (IC50) of at most 20 µM. Compound `CN(c1cc(-c2ccccc2)c2ncn(C)c2c1)c1ccnc(NCCOc2ccccc2)n1` [N-4-methyl-N-4-(3-methyl-7-phenyl-3H-benzo[d]imidazol-5-yl)-N-2-(2-phenoxy-ethyl)pyrimidine-2,4-diamine] gave a concentration for half-maximal inhibition (IC50) of at most 20 µM. In the case of `CN(c1cc(-c2ccccc2)c2ncn(C)c2c1)c1ccnc(NC2CCN(C(=O)OC(C)(C)C)CC2)n1` [tert-Butyl 4-(4-(methyl(3-methyl-7-phenyl-3H-benzo[d]imidazol-5-yl)amino)-pyrimidin-2-ylamino)piperidine-1-carboxylate], the 50% inhibitory concentration (IC50) is at most 20 µM.
